Entries after “also recorded” stand apart in the source; their conditions may differ. Read-outs that look alike come from different tables or passages of the source.
How the values were obtained:
AnSt-D7L1 [1] = target: T1, AnSt-D7L1 (Anopheles stephensi, UniProt Q95NY5); conditions: for binding to AnSt-D7L1 by ITC (in words): ITC screen of candidate ligands, partly unpublished data; for Kd: read-out: dissociation constant (Kd), ITC, 35°C, 40 µM ligand in syringe, 4 µM AnSt-D7L1 in cell, single binding site model
T1 sequence (Q95NY5 19-315 limits assumed): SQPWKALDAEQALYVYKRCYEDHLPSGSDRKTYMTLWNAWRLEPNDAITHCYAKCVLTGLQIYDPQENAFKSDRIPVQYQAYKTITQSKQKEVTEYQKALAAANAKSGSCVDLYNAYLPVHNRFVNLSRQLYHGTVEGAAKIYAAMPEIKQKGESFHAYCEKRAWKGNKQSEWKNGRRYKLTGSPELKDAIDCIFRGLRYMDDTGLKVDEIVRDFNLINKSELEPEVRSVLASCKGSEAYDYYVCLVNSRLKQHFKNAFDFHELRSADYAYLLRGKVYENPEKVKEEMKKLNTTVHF
Protocol: (§1) Binding experiments were performed on a MicroCal VP-ITC instrument. For CysLT experiments the syringe contained a 20 µM ligand solution, and the AnSt-D7L1 concentration in the cell was 2 µM. For the TXA2 analog experiments the ligand solution used to fill the syringe was 40 µM and the AnSt-D7L1 concentration in the cell was 4 µM. Assays were performed at 35°C with successive 10 µL injections.
(§2) Binding experiments were performed on a MicroCal VP-ITC instrument. For these experiments, the ligand solution used to fill the syringe was 80 µM and AnSt-D7L1 concentration in the calorimeter cell was 8 µM. Assays were performed at 35°C with successive 10 µL injections.
(§3) AnSt-D7L1 was prepared for ITC experiments by dialysis against 20 mM Tris-HCl 0.15 M NaCl pH 7.4 for 1 h. Binding experiments were performed on a MicroCal VP-ITC instrument. Aliquots of lipid stock solutions in ethanol or methyl acetate were dried under a stream of nitrogen in a glass vial, then dissolved in 20 mM Tris HCl, 0.15 M NaCl pH 7.4, vortexed, and sonicated for 8 min. Non-lipidic ligands were dissolved in 20 mM Tris HCl, 0.15 M NaCl pH 7.4. All solutions were degassed prior to use. Assays were performed at 35°C with successive 10 µL injections, with a spacing interval of 180 s and a syringe stirring speed of 290 rpm. In all the cases, after subtraction of the heats of dilution, the measured heats were converted to enthalpies and analyzed by fitting to a single-site binding model using the Microcal Origin software.

AeD7 = tested on: AeD7; design: method as in PMID 19234127; conditions: cited from earlier work
AnSt-D7L1 [2] = target: T1, AnSt-D7L1; assay: Incubation of LTC4 with AnSt-D7L1, gel filtration, HPLC and mass spectrometry (test for hydrolytic or enzymatic function); design: made in house; conditions: incubated at 25°C; mass spectrum of bound versus free ligand
Protocol: Fractions containing the complex were then applied to a C18 HPLC column, eluted with methanol, and analyzed by mass spectrometry.
(B) LTC4 was injected alone in order to obtain a retention volume measurement for the free ligand. In both cases, the column was eluted with 100 mM ammonium acetate pH 7.2 at a flow rate of 60 µL per min. (0.39 MB TIF) Click here for additional data file.
Supplementary file pbio.1000547.s003.tif: Figure S3 Mass spectral analysis of the AnSt-D7L1-LTC4 complex after gel filtration chromatography. Top: The peak fraction from the gel filtration of Figure S2 (3 µl) was applied to a C18 column and eluted with 5% methanol 0.1% acetic acid for 10 min, then 5%–95% methanol 0.1% acetic acid (0.3 mm diameter column in 20 min at 3 µl/min). The eluent was analyzed directly by MS/MS. […] The inset is a sample collision-induced dissociation spectrum (35% intensity) recorded at 61–65 min. (2.15 MB TIF) Click here for additional data file.

AnSt-D7L1 [3] = target: T1, AnSt-D7L1; assay: biochemical
Protocol: as §1, §2, §3

CysLT1 = target: CysLT1; design: method as in PMID 16107763; conditions: read-out: affinity of CysLT1; cited from earlier work
[4] = tested on: Human platelet-rich plasma; assay: Platelet aggregation assay in an aggregometer; assay type: cell-based; conditions: for effect on U46619-induced platelet shape change / effect on U46619-induced platelet aggregation: 1.3 µM U46619; for effect on U46619-induced platelet shape change: AnSt-D7L1 2 and 3 µM, SQ 29,548 1 µM without protein; for effect on collagen-induced platelet aggregation (comparison with TXA2 antagonists): 3 µM AnSt-D7L1, SQ 29,548, or indomethacin pre-treatment
Protocol: Figure 5 Effect of AnSt-D7L1 on platelet aggregation promoted by different agonists. Platelet-rich human plasma was incubated with different concentrations of AnSt-D7L1 for 1 min prior to the addition of agonists as indicated. Aggregation was measured at 37°C on an aggregometer. Unless otherwise stated protein concentration (µM) is shown under respective curves. (A) Concentration dependence of AnSt-D7L1 inhibition of collagen-mediated platelet aggregation at low concentration of collagen. (B) Lack of inhibition of collagen-mediated platelet aggregation by AnSt-D7L1 at high concentration of collagen. (C) Lack of inhibition of convulxin-mediated platelet aggregation by AnSt-D7L1. (D) ADP-mediated platelet aggregation in the absence of any protein (control), in the presence of 3 µM AnSt-D7L1, or in the presence of 3 µM RPAI1, which is known to bind ADP. (E) Lack of effect of AnSt-D7L1 on PMA-induced platelet aggregation. (F) Lack of effect of AnSt-D7L1 on ristocetin-induced platelet aggregation.
Figure 6 AnSt-D7L1 affects platelet aggregation promoted by TXA2. Platelet-rich human plasma was incubated with different concentrations of AnSt-D7L1 or buffer, as indicated, for 1 min prior to the addition of agonists indicated in each panel. (A) Aggregation mediated by collagen in the presence of TXA2 antagonists. The effect of 3 µM AnSt-D7L1 on collagen-induced aggregation was similar to the effect promoted by a thromboxane receptor (TP) antagonist (SQ 29,548) or by pre-incubating platelets with indomethacin, a general cyclooxygenase inhibitor. […] (B) AnSt-D7L1 has a dose dependent effect on U46619-induced platelet aggregation. Protein concentrations are shown on the bottom of each curve. […] (C) AnSt-D7L1 (3 µM) affects AA-induced platelet aggregation. […] Respective treatments are indicated in the bottom of each curve.
Platelets were prepared as described previously. Human platelet-rich plasma (∼2×10^5/µL final density) and Tyrode-BSA buffer in the presence or absence of AnSt-D7L1 (final volume 300 µL) were placed in an aggregometer and stirred at 1,200 rpm at 37°C for 1 min prior to the addition of different agonists. In experiments using the human TP (TXA2 receptor) antagonist SQ 29,548 or made in the presence of proteins (AnSt-D7L1 or RPAI-1), those compounds were added to the platelet suspension and Tyrode mix prior to addition of agonists. In experiments in which indomethacin, a general cycloxygenase inhibitor, was used, platelets were pre-incubated with the compound for 5 min prior to addition of agonists.

TP receptor = target: TP receptor; design: method as in PMID 18374420; conditions: Gα12/13-coupled signaling; read-out: EC50 for TP-mediated shape change; cited from earlier work
rat aorta = assay: Smooth muscle bioassay: U46619-induced contraction of rat aorta
Protocol: Figure 4 Smooth muscle contraction bioassay.
Tissue preparations were bathed in modified Tyrode solution (with 10 mM HEPES buffer, pH 7.4) during the course of the experiment, and the solutions were kept oxygenated by bubbling air into the bath.

For `CCCCC/C=C\C/C=C\C/C=C\C/C=C\CCCC(=O)O` [AA, arachidonic acid], the “binding to AnSt-D7L1 by ITC (in words)” value (AnSt-D7L1 [1]) was “no detectable binding”.
For `Nc1ncnc2c1ncn2[C@@H]1O[C@H](COP(=O)(O)OP(=O)(O)O)[C@@H](O)[C@H]1O` [ADP, adenosine diphosphate], the “binding to AnSt-D7L1 by ITC (in words)” value (AnSt-D7L1 [1]) was “Neither showed any detectable binding”.
For `CCCCC/C=C\C[C@@H](O)/C=C/C=C/C=C\[C@@H](O)CCCC(=O)O` [LTB4, leukotriene B4], the “binding to AnSt-D7L1 by ITC (in words)” value (AnSt-D7L1 [1]) is listed as “did not bind” and the “binding to AeD7 (in words)” value (AeD7) is listed as “low affinity”.
With `CCCCC/C=C\C\C=C/C=C/C=C/[C@@H](SC[C@H](NC(=O)CC[C@H](N)C(=O)O)C(=O)NCC(=O)O)[C@@H](O)CCCC(=O)O` [LTC4, leukotriene C4] the “chemical modification of bound LTC4 by AnSt-D7L1” value (AnSt-D7L1 [2]) was “binds but does not chemically modify”.
With `CCCCC/C=C\C\C=C/C=C/C=C/[C@@H](SC[C@H](N)C(=O)NCC(=O)O)[C@@H](O)CCCC(=O)O` [LTD4, leukotriene D4] the Kd (AnSt-D7L1 [3]) was 5 ± 1 nM.
For `CCCCC/C=C\C\C=C/C=C/C=C/[C@@H](SC[C@H](N)C(=O)O)[C@@H](O)CCCC(=O)O` [LTE4, leukotriene E4], the Kd (CysLT1) is given as about 100 nM.
With `CCCCC[C@H](O)/C=C/[C@H]1C(=O)C[C@H](O)[C@@H]1C/C=C\CCCC(=O)O` [PGD2] the “binding to AnSt-D7L1 by ITC (in words)” value (AnSt-D7L1 [1]) was “affinities much lower than those seen with CysLTs and TXA2 analogs”.
For `CCCCC[C@H](O)/C=C/[C@H]1[C@H](O)CC(=O)[C@@H]1C/C=C\CCCC(=O)O` [PGE2, prostaglandin E2], the Kd (AnSt-D7L1 [3]) was 1900 ± 200 nM and the “binding to AnSt-D7L1 by ITC (in words)” value (AnSt-D7L1 [1]) was “affinities much lower than those seen with CysLTs and TXA2 analogs”.
For `CCCCC[C@H](O)/C=C/[C@@H]1[C@@H](C/C=C\CCCC(=O)O)[C@@H](O)C[C@H]1O` [PGF2α, prostaglandin F2α], the Kd (AnSt-D7L1 [3]) was 671 ± 61 nM and the “binding to AnSt-D7L1 by ITC (in words)” value (AnSt-D7L1 [1]) was “affinities much lower than those seen with CysLTs and TXA2 analogs”.
With `O=C(O)CCC/C=C\C[C@@H]1[C@H](CNNC(=O)Nc2ccccc2)[C@H]2CC[C@@H]1O2` [SQ 29,548] the “effect on U46619-induced platelet shape change” value [4] was “prevented” and the “effect on collagen-induced platelet aggregation (comparison with TXA2 antagonists)” value (shortened to “effect … (comparison with TXA2 antagonists)”) [4] was “attenuated”.
Compound `CCCCC[C@H](O)/C=C/[C@H]1OC(O)C[C@H](O)[C@@H]1C/C=C\CCCC(=O)O` (stereo partly shown) [TXB2, thromboxane B2] has a Kd (AnSt-D7L1 [3]) of 1300 ± 200 nM.
For `CCCCC[C@H](O)/C=C/[C@@H]1[C@@H](C/C=C\CCCC(=O)O)[C@H]2CO[C@@H]1C2` [U46619], the Kd (AnSt-D7L1 [1]) is listed as about 98 nM, the EC50 (TP receptor) is listed as about 13 nM and the “binding to AeD7 (in words)” value (AeD7) is listed as “no detectable binding”.
In the case of `CCCCCC/C=C/C1C2CC(N=N2)C1C/C=C\CCCC(=O)O` (stereo not shown) [U51605], the “binding to AnSt-D7L1 by ITC (in words)” value (AnSt-D7L1 [1]) is reported as “detectable but much weaker binding than U46619”.
`CCCCC[C@H](O)/C=C/[C@H]1CC2CC(C2)[C@@H]1C/C=C\CCCC(=O)O` [carbocyclic TXA2] showed a Kd (AnSt-D7L1 [1]) of about 38 nM.
With `COc1ccc2c(c1)c(CC(=O)O)c(C)n2C(=O)c1ccc(Cl)cc1` [indomethacin] the “effect … (comparison with TXA2 antagonists)” value [4] was “attenuated”.
With `CNC[C@H](O)c1cccc(O)c1` [phenylephrine] the “contraction of aorta after relaxation by AnSt-D7L1” value (rat aorta; 3 µM phenylephrine added after relaxation) was “contracted normally”.
With “AnSt-D7L1: recombinant two-domain D7 salivary protein from An. stephensi that binds CysLTs and TXA2” the “reversal of contraction induced by U46619” value (rat aorta; aorta pre-contracted with 1 µM U46619, 0.1 µM AnSt-D7L1 added after plateau) was “caused relaxation”, the “effect on U46619-induced contraction of aorta” value (rat aorta; pre-incubation with AnSt-D7L1, 0.1 µM U46619) was “inhibited; also recorded: no contraction” and the “increase of the amount of U46619 needed to promote contraction” value (rat aorta; pre-incubation with AnSt-D7L1, successive additions of 0.1 µM U46619) was “approximately 3 fold”. The “effect on U46619-induced platelet aggregation” value ([4]; 1 µM AnSt-D7L1) was “dramatically inhibited aggregation”, the “effect on U46619-induced platelet aggregation” value ([4]; 2 and 3 µM AnSt-D7L1) was “completely prevented aggregation” and the “effect on U46619-induced platelet shape change” value [4] was “not completely inhibited”. The “effect on U46619-induced platelet aggregation” value ([4]; low AnSt-D7L1 concentrations, less than 1:1 ratio) was “delayed but did not prevent platelet aggregation”, the “effect on AA-induced platelet aggregation” value ([4]; AA as agonist, 3 µM AnSt-D7L1, or indomethacin pre-incubation without protein) was “drastically decreased” and the “inhibition of convulxin-induced platelet aggregation” value ([4]; GPVI agonist convulxin) was “inhibitory effect of AnSt-D7L1 was lost”. The “inhibition of collagen-induced platelet aggregation” value ([4]; collagen at high concentration) was “inhibitory effect of AnSt-D7L1 was lost”, the “effect … (comparison with TXA2 antagonists)” value [4] was “very similar” and the “inhibition of collagen-induced platelet aggregation” value ([4]; low collagen 1.6 µg/mL, 1 µM AnSt-D7L1) was “almost completely inhibited”. The “effect on the platelet response to collagen stimulation” value ([4]; low collagen, 0.03 µM AnSt-D7L1) was “sufficient to remove a significant fraction of the TXA2”, the “effect on the platelet aggregation response to collagen” value ([4]; low collagen, 0.1 µM AnSt-D7L1) was “eliminates most of the aggregation response” and the “inhibition of ADP-induced platelet shape change” value ([4]; minimal dose of ADP eliciting shape change, 3 µM protein) was “no inhibitory effect”. For the same compound, the “effect on PMA-induced platelet aggregation” value ([4]; protein kinase C activator PMA) was “no effect” and the “effect on ristocetin-induced platelet agglutination” value ([4]; ristocetin, VWF-dependent) was “no effect”.
For platelet activating factor [PAF], the “binding to AnSt-D7L1 by ITC (in words)” value (AnSt-D7L1 [1]) was “Neither showed any detectable binding”.

Source: publication PMC2994686, “The Function and Three-Dimensional Structure of a Thromboxane A2/Cysteinyl Leukotriene-Binding Protein from the Saliva of a Mosquito Vector of the Malaria Parasite” (PLoS Biology, 2010)
